# Measured values published in ChEMBL document CHEMBL1641588, “3-[Benzimidazo- and 3-[benzothiadiazoleimidazo-(1,2-c)quinazolin-5-yl]-2H-chromene-2-ones as potent antimicrobial agents” (2011).
# Legend:
# Streptococcus pyogenes [1] = assay: Antibacterial activity against Streptococcus pyogenes at 1000 ug/mL after 72 hrs by agar diffusion assay; format: functional; conditions: read-out: IZ
# Bacillus subtilis [2] = assay: Antibacterial activity against Bacillus subtilis at 1000 ug/mL after 72 hrs by agar diffusion assay; format: functional; conditions: read-out: IZ
# Streptococcus pyogenes [3] = assay: Antibacterial activity against Streptococcus pyogenes by liquid dilution method; format: functional
# Candida albicans [4] = assay: Antifungal activity against Candida albicans by liquid dilution method; format: functional
# Escherichia coli [5] = assay: Antibacterial activity against Escherichia coli by liquid dilution method; format: functional
# Candida albicans [6] = assay: Antifungal activity against Candida albicans at 1000 ug/mL after 72 hrs by agar diffusion assay; format: functional; conditions: read-out: IZ
# Aspergillus niger [7] = assay: Antifungal activity against Aspergillus niger at 1000 ug/mL after 72 hrs by agar diffusion assay; format: functional; conditions: read-out: IZ
# Salmonella typhimurium [8] = assay: Antibacterial activity against Salmonella Typhimurium by liquid dilution method; format: functional, Salmonella enterica subsp. enterica serovar Typhimurium; conditions: Salmonella enterica
# Aspergillus flavus [9] = assay: Antifungal activity against Aspergillus flavus at 1000 ug/mL after 72 hrs by agar diffusion assay; format: functional; conditions: read-out: IZ
# Bacillus subtilis [10] = assay: Antibacterial activity against Bacillus subtilis by liquid dilution method; format: functional
# Klebsiella pneumoniae [11] = assay: Antibacterial activity against Klebsiella pneumoniae by liquid dilution method; format: functional
# Klebsiella pneumoniae [12] = assay: Antibacterial activity against Klebsiella pneumoniae at 1000 ug/mL after 72 hrs by agar diffusion assay; format: functional; conditions: read-out: IZ
# Aspergillus flavus [13] = assay: Antifungal activity against Aspergillus flavus by liquid dilution method; format: functional
# Salmonella typhimurium [14] = assay: Antibacterial activity against Salmonella Typhimurium at 1000 ug/mL after 72 hrs by agar diffusion assay; format: functional, Salmonella enterica subsp. enterica serovar Typhimurium; conditions: Salmonella enterica, read-out: IZ
# Staphylococcus aureus [15] = assay: Antibacterial activity against Staphylococcus aureus at 1000 ug/mL after 72 hrs by agar diffusion assay; format: functional; conditions: read-out: IZ
# Escherichia coli [16] = assay: Antibacterial activity against Escherichia coli at 1000 ug/mL after 72 hrs by agar diffusion assay; format: functional; conditions: read-out: IZ
# Staphylococcus aureus [17] = assay: Antibacterial activity against Staphylococcus aureus by liquid dilution method; format: functional
# Aspergillus niger [18] = assay: Antifungal activity against Aspergillus niger by liquid dilution method; format: functional
Compound,zone of inhibition at 1000 µg/mL (Streptococcus pyogenes [1]) [mm],zone of inhibition at 1000 µg/mL (Bacillus subtilis [2]) [mm],MIC (Streptococcus pyogenes [3]) [µg/mL],MIC (Candida albicans [4]) [µg/mL],MIC (Escherichia coli [5]) [µg/mL],zone of inhibition at 1000 µg/mL (Candida albicans [6]) [mm],zone of inhibition at 1000 µg/mL (Aspergillus niger [7]) [mm],MIC (Salmonella typhimurium [8]) [µg/mL],zone of inhibition at 1000 µg/mL (Aspergillus flavus [9]) [mm],MIC (Bacillus subtilis [10]) [µg/mL],MIC (Klebsiella pneumoniae [11]) [µg/mL],zone of inhibition at 1000 µg/mL (Klebsiella pneumoniae [12]) [mm],MIC (Aspergillus flavus [13]) [µg/mL],zone of inhibition at 1000 µg/mL (Salmonella typhimurium [14]) [mm],zone of inhibition at 1000 µg/mL (Staphylococcus aureus [15]) [mm],zone of inhibition at 1000 µg/mL (Escherichia coli [16]) [mm],MIC (Staphylococcus aureus [17]) [µg/mL],MIC (Aspergillus niger [18]) [µg/mL]
O=c1oc2ccc([N+](=O)[O-])cc2cc1-c1nc2ccccc2c2nc3ccccc3n12,28,27,40,50,30,27,29,25,30,10,40,29,45,32,24,35,35,45
O=c1oc2ccc([N+](=O)[O-])cc2cc1-c1nc2ccccc2c2nc3c4nsnc4ccc3n12,29,30,30,30,35,38,36,35,44,45,45,27,25,29,27,31,35,35
O=c1oc2c(Cl)cc(Cl)cc2cc1-c1nc2ccccc2c2nc3c4nsnc4ccc3n12,20,34,35,45,30,26,33,25,29,45,35,34,50,31,39,32,35,40
Cc1cccc2cc(-c3nc4ccccc4c4nc5c6nsnc6ccc5n34)c(=O)oc12,24,26,45,35,45,30,28,30,33,50,25,32,40,29,29,20,40,50
O=c1oc2c(Cl)cc(Cl)cc2cc1-c1nc2ccccc2c2nc3ccccc3n12,38,42,10,50,10,39,38,2.5,38,10,5,47,35,48,50,44,2.5,35
O=c1oc2c(Br)cccc2cc1-c1nc2ccccc2c2nc3c4nsnc4ccc3n12,23,29,40,35,35,29,31,35,33,40,25,30,50,29,35,31,30,35
O=c1oc2c(Br)cccc2cc1-c1nc2ccccc2c2nc3ccccc3n12,27,28,35,40,45,32,37,35,45,40,25,31,10,29,39,28,40,40
